Results from ChEMBL document CHEMBL1201861, “Genomics of Drug Sensitity in Cancer screening data, Wellcome Trust Sanger Institute”.

What follows are compounds tested on HT (assay: cells). Conditions: Homo sapiens, HT.
Format: functional, cell-based, Homo sapiens
Description: SANGER: Inhibition of human HT cell growth in a cell viability assay.

Row | SMILES | IC50
1 | CCN(CC)CCCCNc1ncc2cc(-c3cc(OC)cc(OC)c3)c(NC(=O)NC(C)(C)C)nc2n1 [PD-173074] | > 2000 nM

What follows are compounds tested on RXF 393 (assay: cells). Conditions: Homo sapiens, RXF 393.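 Also: growth inhibition of human RXF 393 cells, read out with a cell viability assay.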
Format: functional, cell-based, Homo sapiens
Description: SANGER: Inhibition of human RXF393 cell growth in a cell viability assay.

Row | SMILES | IC50
2 | CCN(CC)CCCCNc1ncc2cc(-c3cc(OC)cc(OC)c3)c(NC(=O)NC(C)(C)C)nc2n1 [PD-173074] | > 2000 nM

What follows are compounds tested on LB996-RCC (assay: cells). Conditions: Homo sapiens, LB996-RCC.
Format: functional, cell-based, Homo sapiens
Description: SANGER: Inhibition of human LB996-RCC cell growth in a cell viability assay.

Row | SMILES | IC50
3 | CCN(CC)CCCCNc1ncc2cc(-c3cc(OC)cc(OC)c3)c(NC(=O)NC(C)(C)C)nc2n1 [PD-173074] | > 2000 nM

The compounds below were run on SJSA-1 (assay: cells). Conditions: Homo sapiens, SJSA-1.
Format: functional, cell-based, Homo sapiens
Description: SANGER: Inhibition of human SJSA-1 cell growth in a cell viability assay.

Row | SMILES | IC50
4 | CCN(CC)CCCCNc1ncc2cc(-c3cc(OC)cc(OC)c3)c(NC(=O)NC(C)(C)C)nc2n1 [PD-173074] | > 2000 nM

What follows are compounds tested on MZ1-PC (assay: cells). Conditions: Homo sapiens, MZ1-PC.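 Also: cell viability assay measuring growth inhibition of human MZ1-PC cells.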
Format: functional, cell-based, Homo sapiens
Description: SANGER: Inhibition of human MZ1-PC cell growth in a cell viability assay.

Row | SMILES | IC50
5 | CCN(CC)CCCCNc1ncc2cc(-c3cc(OC)cc(OC)c3)c(NC(=O)NC(C)(C)C)nc2n1 [PD-173074] | > 2000 nM

Each compound was assayed on HEL (assay: cells). Conditions: Homo sapiens, HEL.
Format: functional, cell-based, Homo sapiens
Description: SANGER: Inhibition of human HEL cell growth in a cell viability assay.

Row | SMILES | IC50
6 | CCN(CC)CCCCNc1ncc2cc(-c3cc(OC)cc(OC)c3)c(NC(=O)NC(C)(C)C)nc2n1 [PD-173074] | > 2000 nM

These compounds were tested on NCI-H446 (assay: cells). Conditions: Homo sapiens, NCI-H446.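 Also: growth inhibition of NCI-H446 cells determined by a cell viability assay.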
Format: functional, cell-based, Homo sapiens
Description: SANGER: Inhibition of human NCI-H446 cell growth in a cell viability assay.

Row | SMILES | IC50
7 | CCN(CC)CCCCNc1ncc2cc(-c3cc(OC)cc(OC)c3)c(NC(=O)NC(C)(C)C)nc2n1 [PD-173074] | > 2000 nM

Each compound was assayed on D-247MG (assay: cells). Conditions: Homo sapiens, D-247MG.
Format: functional, cell-based, Homo sapiens
Description: SANGER: Inhibition of human D-247MG cell growth in a cell viability assay.

Row | SMILES | IC50
8 | CCN(CC)CCCCNc1ncc2cc(-c3cc(OC)cc(OC)c3)c(NC(=O)NC(C)(C)C)nc2n1 [PD-173074] | > 2000 nM

Each compound was assayed on HCC2218 (assay: cells). Conditions: Homo sapiens, HCC2218.
Format: functional, cell-based, Homo sapiens
Description: SANGER: Inhibition of human HCC2218 cell growth in a cell viability assay.

Row | SMILES | IC50
9 | CCN(CC)CCCCNc1ncc2cc(-c3cc(OC)cc(OC)c3)c(NC(=O)NC(C)(C)C)nc2n1 [PD-173074] | > 2000 nM

The compounds below were run on SCH (assay: cells). Conditions: Homo sapiens, SCH.
Format: functional, cell-based, Homo sapiens
Description: SANGER: Inhibition of human SCH cell growth in a cell viability assay.

Row | SMILES | IC50
10 | CCN(CC)CCCCNc1ncc2cc(-c3cc(OC)cc(OC)c3)c(NC(=O)NC(C)(C)C)nc2n1 [PD-173074] | > 2000 nM

What follows are compounds tested on TE-10 (assay: cells). Conditions: Homo sapiens, TE-10.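 Also: growth inhibition of TE-10 cells, measured by a cell viability assay.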
Format: functional, cell-based, Homo sapiens
Description: SANGER: Inhibition of human TE-10 cell growth in a cell viability assay.

Row | SMILES | IC50
11 | CCN(CC)CCCCNc1ncc2cc(-c3cc(OC)cc(OC)c3)c(NC(=O)NC(C)(C)C)nc2n1 [PD-173074] | > 2000 nM

Each compound was assayed on JAR (assay: cells). Conditions: Homo sapiens, JAR.
Format: functional, cell-based, Homo sapiens
Description: SANGER: Inhibition of human JAR cell growth in a cell viability assay.

Row | SMILES | IC50
12 | CCN(CC)CCCCNc1ncc2cc(-c3cc(OC)cc(OC)c3)c(NC(=O)NC(C)(C)C)nc2n1 [PD-173074] | > 2000 nM

These compounds were tested on SNU-5 (assay: cells). Conditions: Homo sapiens, SNU-5.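 Also: cell viability readout used to measure growth inhibition in human NCI-SNU-5 cells.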
Format: functional, cell-based, Homo sapiens
Description: SANGER: Inhibition of human NCI-SNU-5 cell growth in a cell viability assay.

Row | SMILES | IC50
13 | CCN(CC)CCCCNc1ncc2cc(-c3cc(OC)cc(OC)c3)c(NC(=O)NC(C)(C)C)nc2n1 [PD-173074] | > 2000 nM

What follows are compounds tested on Ramos-2G6-4C10 (assay: cells). Conditions: Homo sapiens, Ramos-2G6-4C10.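 Also: growth inhibition of the cell line, measured by a cell viability read-out.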
Format: functional, cell-based, Homo sapiens
Description: SANGER: Inhibition of human Ramos-2G6-4C10 cell growth in a cell viability assay.

Row | SMILES | IC50
14 | CCN(CC)CCCCNc1ncc2cc(-c3cc(OC)cc(OC)c3)c(NC(=O)NC(C)(C)C)nc2n1 [PD-173074] | > 2000 nM

Each compound was assayed on NB10 (assay: cells). Conditions: Homo sapiens, NB10.
Format: functional, cell-based, Homo sapiens
Description: SANGER: Inhibition of human NB10 cell growth in a cell viability assay.

Row | SMILES | IC50
15 | CCN(CC)CCCCNc1ncc2cc(-c3cc(OC)cc(OC)c3)c(NC(=O)NC(C)(C)C)nc2n1 [PD-173074] | > 2000 nM

The compounds below were run on MZ7-mel (assay: cells). Conditions: Homo sapiens, MZ7-mel.
Format: functional, cell-based, Homo sapiens
Description: SANGER: Inhibition of human MZ7-mel cell growth in a cell viability assay.

Row | SMILES | IC50
16 | CCN(CC)CCCCNc1ncc2cc(-c3cc(OC)cc(OC)c3)c(NC(=O)NC(C)(C)C)nc2n1 [PD-173074] | > 2000 nM

What follows are compounds tested on SW684 (assay: cells). Conditions: Homo sapiens, SW684.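 Also: growth inhibition of human SW684 cells, measured by a cell viability assay.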
Format: functional, cell-based, Homo sapiens
Description: SANGER: Inhibition of human SW684 cell growth in a cell viability assay.

Row | SMILES | IC50
17 | CCN(CC)CCCCNc1ncc2cc(-c3cc(OC)cc(OC)c3)c(NC(=O)NC(C)(C)C)nc2n1 [PD-173074] | > 2000 nM

The compounds below were run on TE-6 (assay: cells). Conditions: Homo sapiens, TE-6.
Format: functional, cell-based, Homo sapiens
Description: SANGER: Inhibition of human TE-6 cell growth in a cell viability assay.

Row | SMILES | IC50
18 | CCN(CC)CCCCNc1ncc2cc(-c3cc(OC)cc(OC)c3)c(NC(=O)NC(C)(C)C)nc2n1 [PD-173074] | > 2000 nM

The compounds below were run on Becker (assay: cells). Conditions: Homo sapiens, Becker.
Format: functional, cell-based, Homo sapiens
Description: SANGER: Inhibition of human Becker cell growth in a cell viability assay.

Row | SMILES | IC50
19 | CCN(CC)CCCCNc1ncc2cc(-c3cc(OC)cc(OC)c3)c(NC(=O)NC(C)(C)C)nc2n1 [PD-173074] | > 2000 nM

Each compound was assayed on BT-474 (assay: cells). Conditions: Homo sapiens, BT-474.
Format: functional, cell-based, Homo sapiens
Description: SANGER: Inhibition of human BT-474 cell growth in a cell viability assay.

Row | SMILES | IC50
20 | CCN(CC)CCCCNc1ncc2cc(-c3cc(OC)cc(OC)c3)c(NC(=O)NC(C)(C)C)nc2n1 [PD-173074] | > 2000 nM

Each compound was assayed on DU-4475 (assay: cells). Conditions: Homo sapiens, DU-4475.
Format: functional, cell-based, Homo sapiens
Description: SANGER: Inhibition of human DU-4475 cell growth in a cell viability assay.

Row | SMILES | IC50
21 | CCN(CC)CCCCNc1ncc2cc(-c3cc(OC)cc(OC)c3)c(NC(=O)NC(C)(C)C)nc2n1 [PD-173074] | > 2000 nM

Each compound was assayed on NCI-H69 (assay: cells). Conditions: Homo sapiens, NCI-H69.
Format: functional, cell-based, Homo sapiens
Description: SANGER: Inhibition of human NCI-H69 cell growth in a cell viability assay.

Row | SMILES | IC50
22 | CCN(CC)CCCCNc1ncc2cc(-c3cc(OC)cc(OC)c3)c(NC(=O)NC(C)(C)C)nc2n1 [PD-173074] | > 2000 nM

The compounds below were run on QIMR-WIL (assay: cells). Conditions: Homo sapiens, QIMR-WIL.
Format: functional, cell-based, Homo sapiens
Description: SANGER: Inhibition of human QIMR-WIL cell growth in a cell viability assay.

Row | SMILES | IC50
23 | CCN(CC)CCCCNc1ncc2cc(-c3cc(OC)cc(OC)c3)c(NC(=O)NC(C)(C)C)nc2n1 [PD-173074] | > 2000 nM
